Experimental data from PubChem BioAssay (NCI).
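Each compound was tested at five concentrations against cells in 96-well plates for 48 hours. Abbreviation: GI50, concentration required for 50% inhibition of growth. TGI: total growth inhibition.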

Tests used:
Assay in all cases: NCI-60 cell line screen, 48 h; in the data active means GI50 below about 0.43 µM; inactive means the rest
[1] = tested on: NCI-H226 lung
[2] = tested on: SK-MEL-2 melanoma
[3] = tested on: SW-620 colon
[4] = tested on: SK-MEL-5 melanoma
[5] = tested on: OVCAR-3 ovarian
[6] = tested on: MCF7 breast
[7] = tested on: EKVX NSCLC
[8] = tested on: CAKI-1 renal
[9] = tested on: MALME-3M melanoma
[10] = tested on: SF-268 CNS
[11] = tested on: NCI-H522 lung
[12] = tested on: OVCAR-8 ovarian
[13] = tested on: CCRF-CEM leukemia
[14] = tested on: SF-295 CNS
[15] = tested on: HOP-92 NSCLC
[16] = tested on: SF-539 CNS
[17] = tested on: K-562 leukemia
[18] = tested on: HL-60(TB) leukemia
[19] = tested on: RXF 393 renal
[20] = tested on: 786-0 renal
[21] = tested on: IGROV1 ovarian
[22] = tested on: UACC-257 melanoma
[23] = tested on: MOLT-4 leukemia
[24] = tested on: HS 578T breast
[25] = tested on: MDA-MB-435
[26] = tested on: HCT-15 colon
[27] = tested on: OVCAR-5 ovarian
[28] = tested on: LOX IMVI melanoma
[29] = tested on: HCC-2998 colon
[30] = tested on: NCI-H23 lung
[31] = tested on: MDA-MB-231 breast
[32] = tested on: M14 melanoma
[33] = tested on: SN12C renal
[34] = tested on: KM12 colon
[35] = tested on: A549 NSCLC
[36] = tested on: UACC-62 melanoma
[37] = tested on: T-47D breast
[38] = tested on: RPMI-8226 leukemia
[39] = tested on: TK-10 renal
[40] = tested on: A498 renal
[41] = tested on: NCI-H460 lung
[42] = tested on: SK-OV-3 ovarian
[43] = tested on: PC-3 prostate
[44] = tested on: HT29 colon
[45] = tested on: NCI/ADR-RES ovarian
[46] = tested on: OVCAR-4 ovarian
[47] = tested on: BT-549 breast
[48] = tested on: U251 CNS
[49] = tested on: COLO 205 colon
[50] = tested on: SK-MEL-28 melanoma
[51] = tested on: ACHN renal
[52] = tested on: HOP-62 NSCLC
[53] = tested on: UO-31 renal
[54] = tested on: SNB-19 CNS
[55] = tested on: DU-145 prostate
[56] = tested on: HCT-116 colon

C/C(=C\c1ccn(-c2ccc(N)cc2C(F)(F)F)n1)[C@@H]1C[C@@H]2O[C@]2(C)CCC[C@H](C)[C@H](O)[C@@H](C)C(=O)C(C)(C)[C@@H](O)CC(=O)O1
0.902 µM: TGI [2]
2.87 µM: TGI [55]
2.27 µM: TGI [40]
6.23 µM: TGI [29]
0.428 µM: TGI [11]
1.86 µM: TGI [16]
4.21 µM: TGI [19]
> 11.1 µM: TGI [1] | TGI [3] | TGI [4] | TGI [6] | TGI [7] | TGI [8] | TGI [9] | TGI [10] | TGI [12] | TGI [13] | TGI [15] | TGI [17] | TGI [20] | TGI [21] | TGI [22] | TGI [23] | TGI [26] | TGI [27] | TGI [28] | TGI [30] | TGI [31] | TGI [33] | TGI [34] | TGI [35] | TGI [36] | TGI [37] | TGI [38] | TGI [39] | TGI [41] | TGI [42] | TGI [43] | TGI [45] | TGI [46] | TGI [47] | TGI [48] | TGI [50] | TGI [51] | TGI [53] | TGI [54] | TGI [56]
4.3 µM: TGI [24]
0.286 µM: TGI [25]
2.19 µM: TGI [14]
0.773 µM: TGI [49]
inactive: GI50 [1] 6.35 µM | GI50 [7] 0.747 µM | GI50 [8] 7.81 µM | GI50 [9] 0.736 µM | GI50 [10] 0.481 µM | GI50 [12] 0.506 µM | GI50 [15] 1.27 µM | GI50 [20] 0.569 µM | GI50 [21] 0.778 µM | GI50 [22] 1.03 µM | GI50 [23] 0.533 µM | GI50 [26] 0.429 µM | GI50 [27] 0.519 µM | GI50 [28] 0.476 µM | GI50 [30] 0.548 µM | GI50 [31] 1.51 µM | GI50 [33] 1.57 µM | GI50 [35] 0.508 µM | GI50 [36] 0.488 µM | GI50 [37] 0.658 µM | GI50 [39] 0.612 µM | GI50 [45] 4.38 µM | GI50 [46] > 11.1 µM | GI50 [47] 0.553 µM | GI50 [50] 1.06 µM | GI50 [51] 0.512 µM | GI50 [52] 0.49 µM | GI50 [53] 0.954 µM | GI50 [54] 0.553 µM
1.56 µM: TGI [32]
9.98 µM: TGI [52]
2.66 µM: TGI [5]
0.996 µM: TGI [44]
1.07 µM: TGI [18]
active: GI50 [2] 0.303 µM | GI50 [3] 0.301 µM | GI50 [4] 0.356 µM | GI50 [5] 0.344 µM | GI50 [6] 0.0859 µM | GI50 [11] 0.178 µM | GI50 [13] 0.413 µM | GI50 [14] 0.314 µM | GI50 [16] 0.305 µM | GI50 [17] 0.356 µM | GI50 [18] 0.296 µM | GI50 [19] 0.395 µM | GI50 [24] 0.399 µM | GI50 [25] 0.0599 µM | GI50 [29] 0.306 µM | GI50 [32] 0.242 µM | GI50 [34] 0.254 µM | GI50 [38] 0.374 µM | GI50 [40] 0.303 µM | GI50 [41] 0.302 µM | GI50 [42] 0.42 µM | GI50 [43] 0.406 µM | GI50 [44] 0.117 µM | GI50 [48] 0.386 µM | GI50 [49] 0.25 µM | GI50 [55] 0.401 µM | GI50 [56] 0.201 µM
